Source: ChEMBL document CHEMBL1795227, “Methanesulfonamido-cyclohexylamine derivatives of 2,4-diaminopyrimidine as potent ALK inhibitors” (Bioorg Med Chem Lett, 2011)

Assays:
[1] = molecular target: Receptor-type tyrosine-protein kinase FLT3 (Homo sapiens) (UniProt P36888); assay: Inhibition of FLT3 at 1 uM
[2] = molecular target: Glycogen synthase kinase-3 alpha (Homo sapiens) (UniProt P49840); assay: Inhibition of GSK3A at 1 uM
[3] = molecular target: Insulin-like growth factor 1 receptor (Homo sapiens) (UniProt P08069); assay: Inhibition of IGF1R at 1 uM
Insulin receptor [4] = molecular target: T1, Insulin receptor (Homo sapiens, UniProt P06213); assay: Inhibition of INSR at 1 uM
T1 sequence (P06213 28-758 limits assumed): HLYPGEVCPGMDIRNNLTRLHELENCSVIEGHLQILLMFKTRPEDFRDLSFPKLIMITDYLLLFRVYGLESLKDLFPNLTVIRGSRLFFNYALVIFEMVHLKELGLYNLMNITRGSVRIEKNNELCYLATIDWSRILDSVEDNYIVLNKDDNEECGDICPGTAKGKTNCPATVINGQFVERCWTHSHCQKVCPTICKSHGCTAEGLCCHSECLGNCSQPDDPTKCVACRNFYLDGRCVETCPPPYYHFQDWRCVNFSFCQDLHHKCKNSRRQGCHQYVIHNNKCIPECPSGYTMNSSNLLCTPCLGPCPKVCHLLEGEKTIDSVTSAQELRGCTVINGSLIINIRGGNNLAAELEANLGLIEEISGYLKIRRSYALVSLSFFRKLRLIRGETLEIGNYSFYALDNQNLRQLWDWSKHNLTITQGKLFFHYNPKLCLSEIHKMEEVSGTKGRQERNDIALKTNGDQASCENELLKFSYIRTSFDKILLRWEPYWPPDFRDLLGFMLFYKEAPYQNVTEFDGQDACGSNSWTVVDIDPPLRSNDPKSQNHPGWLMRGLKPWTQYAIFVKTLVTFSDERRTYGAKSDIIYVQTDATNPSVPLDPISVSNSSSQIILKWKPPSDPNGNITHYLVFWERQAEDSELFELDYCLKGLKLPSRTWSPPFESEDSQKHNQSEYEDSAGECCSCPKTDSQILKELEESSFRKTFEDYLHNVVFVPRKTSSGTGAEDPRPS
T1 sequence (P06213 763-1382 limits assumed): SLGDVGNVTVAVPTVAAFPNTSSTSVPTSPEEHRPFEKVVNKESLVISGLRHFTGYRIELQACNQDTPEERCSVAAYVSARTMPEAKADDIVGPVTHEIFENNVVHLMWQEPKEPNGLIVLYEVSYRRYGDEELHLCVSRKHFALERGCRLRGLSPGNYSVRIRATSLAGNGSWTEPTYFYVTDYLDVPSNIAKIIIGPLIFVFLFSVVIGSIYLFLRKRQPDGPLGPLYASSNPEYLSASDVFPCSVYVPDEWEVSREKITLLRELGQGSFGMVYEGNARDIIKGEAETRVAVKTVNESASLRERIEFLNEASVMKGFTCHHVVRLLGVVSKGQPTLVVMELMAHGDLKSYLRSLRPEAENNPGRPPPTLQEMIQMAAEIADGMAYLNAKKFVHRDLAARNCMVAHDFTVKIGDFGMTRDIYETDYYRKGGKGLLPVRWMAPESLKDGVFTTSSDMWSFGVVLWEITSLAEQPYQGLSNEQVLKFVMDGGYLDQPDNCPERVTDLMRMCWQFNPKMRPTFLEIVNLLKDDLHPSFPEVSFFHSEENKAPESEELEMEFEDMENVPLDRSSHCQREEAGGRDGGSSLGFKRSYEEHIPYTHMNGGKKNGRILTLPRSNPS

[5] = molecular target: Tyrosine-protein kinase ITK/TSK (Homo sapiens) (UniProt Q08881); assay: Inhibition of ITK at 1 uM
[6] = molecular target: Tyrosine-protein kinase JAK2 (Homo sapiens) (UniProt O60674); assay: Inhibition of JAK2 domain 2 at 1 uM
[7] = molecular target: Mitogen-activated protein kinase 8 (Homo sapiens) (UniProt P45983); assay: Inhibition of JNK1 at 1 uM
[8] = molecular target: Mitogen-activated protein kinase 9 (Homo sapiens) (UniProt P45984); assay: Inhibition of JNK2 at 1 uM
[9] = molecular target: Mitogen-activated protein kinase 10 (Homo sapiens) (UniProt P53779); assay: Inhibition of JNK3 at 1 uM
[10] = molecular target: Mast/stem cell growth factor receptor Kit (Homo sapiens) (UniProt P10721); assay: Inhibition of KIT at 1 uM
[11] = tested on: Mast/stem cell growth factor receptor Kit (Homo sapiens), P10721 [V559D,T670I]; assay: Inhibition of KIT V559D T670I at 1 uM
[12] = molecular target: Tyrosine-protein kinase Lck (Homo sapiens) (UniProt P06239); assay: Inhibition of LCK at 1 uM
[13] = molecular target: Serine/threonine-protein kinase STK11 (Homo sapiens) (UniProt Q15831); assay: Inhibition of LKB1 at 1 uM
[14] = molecular target: Mitogen-activated protein kinase 11 (Homo sapiens) (UniProt Q15759); assay: Inhibition of p38 beta at 1 uM
[15] = molecular target: Mitogen-activated protein kinase 12 (Homo sapiens) (UniProt P53778); assay: Inhibition of p38 gamma at 1 uM
[16] = molecular target: Serine/threonine-protein kinase PAK 1 (Homo sapiens) (UniProt Q13153); assay: Inhibition of PAK1 at 1 uM
[17] = molecular target: Platelet-derived growth factor receptor alpha (Homo sapiens) (UniProt P16234); assay: Inhibition of PDGFRalpha at 1 uM
[18] = molecular target: 3-phosphoinositide-dependent protein kinase 1 (Homo sapiens) (UniProt O15530); assay: Inhibition of PDPK1 at 1 uM
[19] = molecular target: Serine/threonine-protein kinase pim-1 (Homo sapiens) (UniProt P11309); assay: Inhibition of PIM1 at 1 uM
[20] = molecular target: Serine/threonine-protein kinase pim-2 (Homo sapiens) (UniProt Q9P1W9); assay: Inhibition of PIM2 at 1 uM
Sequence of Serine/threonine-protein kinase pim-2 (Homo sapiens) (Q9P1W9 whole entry, looked up): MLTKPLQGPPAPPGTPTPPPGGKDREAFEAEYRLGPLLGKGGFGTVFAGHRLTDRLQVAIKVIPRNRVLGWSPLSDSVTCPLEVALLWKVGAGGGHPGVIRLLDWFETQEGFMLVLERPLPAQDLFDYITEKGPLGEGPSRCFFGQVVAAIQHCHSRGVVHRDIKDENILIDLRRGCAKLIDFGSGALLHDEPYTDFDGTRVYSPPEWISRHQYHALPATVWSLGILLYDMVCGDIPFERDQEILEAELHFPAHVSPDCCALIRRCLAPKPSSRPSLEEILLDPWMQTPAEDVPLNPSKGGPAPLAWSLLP

[21] = molecular target: Protein kinase C eta type (Homo sapiens) (UniProt P24723); assay: Inhibition of PRKCH at 1 uM
[22] = molecular target: Proto-oncogene tyrosine-protein kinase receptor Ret (Homo sapiens) (UniProt P07949); assay: Inhibition of RET at 1 uM
Sequence of Proto-oncogene tyrosine-protein kinase receptor Ret (Homo sapiens) (P07949 whole entry): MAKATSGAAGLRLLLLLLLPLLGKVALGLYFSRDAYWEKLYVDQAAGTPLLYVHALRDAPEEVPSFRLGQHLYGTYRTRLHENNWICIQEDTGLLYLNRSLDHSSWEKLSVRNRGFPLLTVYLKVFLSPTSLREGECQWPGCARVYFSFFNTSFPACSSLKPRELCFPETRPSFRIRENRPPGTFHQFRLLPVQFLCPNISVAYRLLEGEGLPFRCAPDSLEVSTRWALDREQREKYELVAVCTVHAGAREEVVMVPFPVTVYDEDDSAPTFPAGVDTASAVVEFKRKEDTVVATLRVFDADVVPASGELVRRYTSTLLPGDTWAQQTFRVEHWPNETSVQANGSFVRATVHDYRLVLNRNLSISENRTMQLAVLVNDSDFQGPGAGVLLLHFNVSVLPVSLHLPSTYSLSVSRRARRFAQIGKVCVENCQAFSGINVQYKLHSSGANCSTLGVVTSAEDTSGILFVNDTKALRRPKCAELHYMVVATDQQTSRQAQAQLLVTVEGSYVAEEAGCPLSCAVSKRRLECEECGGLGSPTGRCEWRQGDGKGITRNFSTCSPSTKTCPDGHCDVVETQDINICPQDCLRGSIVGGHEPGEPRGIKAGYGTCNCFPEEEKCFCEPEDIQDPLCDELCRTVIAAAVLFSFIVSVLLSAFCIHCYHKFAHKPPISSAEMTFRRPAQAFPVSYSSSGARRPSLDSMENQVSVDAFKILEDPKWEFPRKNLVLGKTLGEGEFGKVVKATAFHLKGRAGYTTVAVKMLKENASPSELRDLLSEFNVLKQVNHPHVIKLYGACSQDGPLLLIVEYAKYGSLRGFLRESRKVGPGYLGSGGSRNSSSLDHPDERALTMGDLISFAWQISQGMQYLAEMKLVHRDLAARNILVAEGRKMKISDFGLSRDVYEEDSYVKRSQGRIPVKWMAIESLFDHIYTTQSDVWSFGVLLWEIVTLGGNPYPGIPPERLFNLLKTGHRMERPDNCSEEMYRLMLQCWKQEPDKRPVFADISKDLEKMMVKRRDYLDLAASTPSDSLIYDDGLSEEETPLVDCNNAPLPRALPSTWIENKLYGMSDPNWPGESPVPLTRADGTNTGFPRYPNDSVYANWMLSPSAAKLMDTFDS

[23] = molecular target: Proto-oncogene tyrosine-protein kinase Src (Homo sapiens) (UniProt P12931); assay: Inhibition of SRC at 1 uM
[24] = molecular target: Angiopoietin-1 receptor (Homo sapiens) (UniProt Q02763); assay: Inhibition of Tie2 at 1 uM
[25] = molecular target: Non-receptor tyrosine-protein kinase TYK2 (Homo sapiens) (UniProt P29597); assay: Inhibition of TYK2 domain 2 at 1 uM
[26] = molecular target: Vascular endothelial growth factor receptor 2 (Homo sapiens) (UniProt P35968); assay: Inhibition of VEGFR2 at 1 uM
[27] = molecular target: Tyrosine-protein kinase ZAP-70 (Homo sapiens) (UniProt P43403); assay: Inhibition of ZAP70 at 1 uM
[28] = molecular target: T2, ALK tyrosine kinase receptor (Homo sapiens, UniProt Q9UM73); assay: Inhibition of ALK
Insulin receptor [29] = molecular target: T1, Insulin receptor; assay: Inhibition of IR
[30] = molecular target: High affinity nerve growth factor receptor (Homo sapiens) (UniProt P04629); assay: Inhibition of TRKA at 1 uM
[31] = molecular target: Activin receptor type-1 (Homo sapiens) (UniProt Q04771); assay: Inhibition of ACVR1 at 1 uM
[32] = molecular target: RAC-beta serine/threonine-protein kinase (Homo sapiens) (UniProt P31751); assay: Inhibition of AKT2 at 1 uM
[33] = molecular target: RAC-gamma serine/threonine-protein kinase (Homo sapiens) (UniProt Q9Y243); assay: Inhibition of AKT3 at 1 uM
[34] = molecular target: Aurora kinase A (Homo sapiens) (UniProt O14965); assay: Inhibition of AURKA at 1 uM
[35] = molecular target: Aurora kinase C (Homo sapiens) (UniProt Q9UQB9); assay: Inhibition of AURKC at 1 uM
Sequence of Aurora kinase C (Homo sapiens) (Q9UQB9 whole entry): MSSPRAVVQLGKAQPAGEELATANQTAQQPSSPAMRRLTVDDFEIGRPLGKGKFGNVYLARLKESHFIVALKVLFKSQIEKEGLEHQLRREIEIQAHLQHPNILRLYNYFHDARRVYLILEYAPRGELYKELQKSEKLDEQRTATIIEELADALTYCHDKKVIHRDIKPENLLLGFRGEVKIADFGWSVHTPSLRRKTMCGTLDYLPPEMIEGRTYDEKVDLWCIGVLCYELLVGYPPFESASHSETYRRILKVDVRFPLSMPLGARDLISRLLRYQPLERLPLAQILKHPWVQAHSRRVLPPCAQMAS

[36] = molecular target: Tyrosine-protein kinase receptor UFO (Homo sapiens) (UniProt P30530); assay: Inhibition of AXL at 1 uM
[37] = molecular target: Serine/threonine-protein kinase B-raf (Homo sapiens) (UniProt P15056); assay: Inhibition of BRAF at 1 uM
[38] = tested on: Serine/threonine-protein kinase B-raf (Homo sapiens), P15056 [V600E]; assay: Inhibition of BRAF V600E at 1 uM
[39] = molecular target: Tyrosine-protein kinase BTK (Homo sapiens) (UniProt Q06187); assay: Inhibition of BTK at 1 uM
Sequence of Tyrosine-protein kinase BTK (Homo sapiens) (Q06187 whole entry): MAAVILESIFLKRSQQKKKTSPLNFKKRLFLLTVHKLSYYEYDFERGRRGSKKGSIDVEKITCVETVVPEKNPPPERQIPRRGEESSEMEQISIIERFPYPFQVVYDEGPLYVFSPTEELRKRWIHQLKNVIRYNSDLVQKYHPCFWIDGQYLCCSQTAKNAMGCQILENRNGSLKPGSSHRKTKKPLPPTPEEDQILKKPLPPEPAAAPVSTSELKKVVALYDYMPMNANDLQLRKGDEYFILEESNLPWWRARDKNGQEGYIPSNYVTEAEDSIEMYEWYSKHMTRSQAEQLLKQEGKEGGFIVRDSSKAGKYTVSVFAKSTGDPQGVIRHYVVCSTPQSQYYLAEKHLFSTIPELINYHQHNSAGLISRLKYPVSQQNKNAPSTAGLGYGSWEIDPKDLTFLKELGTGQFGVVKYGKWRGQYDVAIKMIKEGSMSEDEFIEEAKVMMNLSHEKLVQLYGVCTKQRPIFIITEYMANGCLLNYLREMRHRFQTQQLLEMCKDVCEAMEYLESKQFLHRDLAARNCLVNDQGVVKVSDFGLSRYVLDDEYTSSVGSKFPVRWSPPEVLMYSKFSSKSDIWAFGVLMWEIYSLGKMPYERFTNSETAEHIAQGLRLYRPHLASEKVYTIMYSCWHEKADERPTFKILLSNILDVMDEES

[40] = molecular target: Macrophage colony-stimulating factor 1 receptor (Homo sapiens) (UniProt P07333); assay: Inhibition of CSF1R at 1 uM
[41] = molecular target: Ephrin type-A receptor 2 (Homo sapiens) (UniProt P29317); assay: Inhibition of EPHA2 at 1 uM
[42] = molecular target: Ephrin type-A receptor 3 (Homo sapiens) (UniProt P29320); assay: Inhibition of EPHA3 at 1 uM
[43] = molecular target: Receptor tyrosine-protein kinase erbB-2 (Homo sapiens) (UniProt P04626); assay: Inhibition of ERBB2 at 1 uM
[44] = molecular target: Receptor tyrosine-protein kinase erbB-4 (Homo sapiens) (UniProt Q15303); assay: Inhibition of ERBB4 at 1 uM
Sequence of Receptor tyrosine-protein kinase erbB-4 (Homo sapiens) (Q15303 whole entry): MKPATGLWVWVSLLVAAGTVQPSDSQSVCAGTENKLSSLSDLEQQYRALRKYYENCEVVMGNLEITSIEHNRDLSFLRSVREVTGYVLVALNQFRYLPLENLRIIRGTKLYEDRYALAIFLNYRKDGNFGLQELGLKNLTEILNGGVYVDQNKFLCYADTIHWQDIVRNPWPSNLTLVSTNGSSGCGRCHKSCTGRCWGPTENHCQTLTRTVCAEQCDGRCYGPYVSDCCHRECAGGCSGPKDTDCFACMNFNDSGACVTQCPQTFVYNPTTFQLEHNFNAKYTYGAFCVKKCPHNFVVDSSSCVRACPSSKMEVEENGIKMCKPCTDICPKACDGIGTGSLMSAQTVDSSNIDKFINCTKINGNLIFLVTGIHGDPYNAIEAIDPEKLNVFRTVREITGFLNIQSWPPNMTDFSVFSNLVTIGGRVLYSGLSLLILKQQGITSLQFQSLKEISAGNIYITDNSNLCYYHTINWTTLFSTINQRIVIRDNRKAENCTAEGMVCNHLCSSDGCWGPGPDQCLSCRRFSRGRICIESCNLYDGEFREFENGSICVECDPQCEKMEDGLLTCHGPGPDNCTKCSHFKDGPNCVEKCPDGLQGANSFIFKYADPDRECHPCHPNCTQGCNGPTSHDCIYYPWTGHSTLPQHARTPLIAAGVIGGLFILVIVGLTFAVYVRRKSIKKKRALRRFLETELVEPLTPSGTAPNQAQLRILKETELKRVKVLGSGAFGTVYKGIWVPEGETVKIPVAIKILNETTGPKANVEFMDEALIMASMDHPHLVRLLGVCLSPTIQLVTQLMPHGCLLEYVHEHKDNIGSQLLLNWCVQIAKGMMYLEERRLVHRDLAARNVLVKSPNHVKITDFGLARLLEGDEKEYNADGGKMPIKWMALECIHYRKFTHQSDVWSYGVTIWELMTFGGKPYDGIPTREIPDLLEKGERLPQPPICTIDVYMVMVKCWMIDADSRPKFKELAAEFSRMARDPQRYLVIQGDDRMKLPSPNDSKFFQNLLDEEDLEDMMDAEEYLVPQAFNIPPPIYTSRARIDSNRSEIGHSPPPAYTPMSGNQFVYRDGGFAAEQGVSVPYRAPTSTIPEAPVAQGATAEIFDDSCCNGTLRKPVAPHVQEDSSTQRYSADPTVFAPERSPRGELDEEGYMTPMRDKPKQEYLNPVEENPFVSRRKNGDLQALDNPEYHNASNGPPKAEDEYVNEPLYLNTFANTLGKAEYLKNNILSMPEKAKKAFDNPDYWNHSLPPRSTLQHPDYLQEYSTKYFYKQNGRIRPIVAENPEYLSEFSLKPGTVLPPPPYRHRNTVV

[45] = molecular target: Fibroblast growth factor receptor 1 (Homo sapiens) (UniProt P11362); assay: Inhibition of FGFR1 at 1 uM
[46] = molecular target: Fibroblast growth factor receptor 3 (Homo sapiens) (UniProt P22607); conditions: 1 uM
Description: Inhibition of FGFR3 at 1 uM

[47] = molecular target: Fibroblast growth factor receptor 4 (Homo sapiens) (UniProt P22455); conditions: 1 uM
Description: Inhibition of FGFR4 at 1 uM

[48] = tested on: Mast/stem cell growth factor receptor Kit (Homo sapiens), P10721 [D816V]; conditions: 1 uM
Description: Inhibition of KIT D816V at 1 uM

[49] = molecular target: T2, ALK tyrosine kinase receptor; conditions: 1 uM
Description: Inhibition of ALK at 1 uM

COCCN1CCc2cc(Nc3ncc(Cl)c(N[C@@H]4CCCC[C@H]4N(C)S(C)(=O)=O)n3)c(OC)cc2CC1
inhibition [1]: 99%
inhibition [2]: < 65%
inhibition [3]: 73%
inhibition (Insulin receptor [4]): 70%
inhibition [5]: < 65%
inhibition [6]: < 65%
inhibition [7]: 97%
inhibition [8]: < 65%
inhibition [9]: 98%
inhibition [10]: 96%
inhibition [11]: 92%
inhibition [12]: < 65%
inhibition [13]: 94%
inhibition [14]: < 65%
inhibition [15]: < 65%
inhibition [16]: < 65%
inhibition [17]: < 65%
inhibition [18]: < 65%
inhibition [19]: 90%
inhibition [20]: < 65%
inhibition [21]: 79%
inhibition [22]: < 65%
inhibition [23]: < 65%
inhibition [24]: < 65%
inhibition [25]: < 65%
inhibition [26]: < 65%
inhibition [27]: < 65%
IC50 [28]: 3 nM
IC50 (Insulin receptor [29]): 460 nM
inhibition [30]: < 65%
inhibition [31]: < 65%
inhibition [32]: < 65%
inhibition [33]: < 65%
inhibition [34]: < 65%
inhibition [35]: < 65%
inhibition [36]: < 65%
inhibition [37]: < 65%
inhibition [38]: < 65%
inhibition [39]: < 65%
inhibition [40]: 98%
inhibition [41]: < 65%
inhibition [42]: < 65%
inhibition [43]: < 65%
inhibition [44]: 98%
inhibition [45]: 100%
inhibition [46]: 100%
inhibition [47]: 100%
inhibition [48]: 100%
inhibition [49]: 100%

COCCN1CCc2cc(Nc3ncc(Cl)c(N[C@@H]4CCCC[C@H]4NS(C)(=O)=O)n3)c(OC)cc2CC1
inhibition [1]: 82%
inhibition [2]: < 65%
inhibition [3]: < 65%
inhibition (Insulin receptor [4]): < 65%
inhibition [5]: < 65%
inhibition [6]: < 65%
inhibition [7]: < 65%
inhibition [8]: < 65%
inhibition [9]: < 65%
inhibition [10]: < 65%
inhibition [11]: < 65%
inhibition [12]: < 65%
inhibition [13]: < 65%
inhibition [14]: < 65%
inhibition [15]: < 65%
inhibition [16]: < 65%
inhibition [17]: < 65%
inhibition [18]: < 65%
inhibition [19]: < 65%
inhibition [20]: < 65%
inhibition [21]: < 65%
inhibition [22]: < 65%
inhibition [23]: < 65%
inhibition [24]: < 65%
inhibition [25]: < 65%
inhibition [26]: < 65%
inhibition [27]: < 65%
IC50 [28]: 6 nM
IC50 (Insulin receptor [29]): 1400 nM
inhibition [30]: < 65%
inhibition [31]: < 65%
inhibition [32]: < 65%
inhibition [33]: < 65%
inhibition [34]: < 65%
inhibition [35]: < 65%
inhibition [36]: < 65%
inhibition [37]: < 65%
inhibition [38]: < 65%
inhibition [39]: < 65%
inhibition [40]: < 65%
inhibition [41]: < 65%
inhibition [42]: < 65%
inhibition [43]: < 65%
inhibition [44]: 74%
inhibition [45]: 86%
inhibition [46]: < 65%
inhibition [47]: < 65%
inhibition [48]: 97%
inhibition [49]: 97%
